# Results taken from patent US20150209315A1 (Cumberland Pharmaceuticals, priority 2009, published 2015).
# Key:
# [1] = system: post-operative adult patients; assay: Example 2: patient self-assessment of pain, VAS at rest; format: in vivo, human; details: 800 mg
# [2] = system: patients undergoing orthopedic surgical procedures; assay: Example 3: morphine use post-surgery through study hour 28; format: in vivo, human; details: for Morphine Requirement, LS Means Difference (95% CI): 800 mg vs placebo; for Morphine Requirement, LS Means Difference (95% CI) / Morphine Requirement, LS Means (SE) / Morphine Requirement, Mean (SD) / Morphine Requirement, Median: Post-Op-28 hours; for decrease in the mean morphine used in the postoperative period / Morphine Requirement, LS Means (SE) / Morphine Requirement, Mean (SD) / Morphine Requirement, Median: 800 mg
structure (smiles),measurement,setting,value
"CC(C)Cc1ccc(C(C)C(=O)O)cc1 (stereo not shown) [Ibuprofen, 2-(4-isobutylphenyl) propionic acid]",VAS Score measured at Rest (median),"[1]; EEP, 1-Hour",8.0
same,"VAS Score measured at Rest, % Reduction vs Placebo","[1]; EEP, 1-Hour",0.0%
same,VAS Score measured at Rest (median),"[1]; EEP, 3-Hour",5.0
same,"VAS Score measured at Rest, % Reduction vs Placebo","[1]; EEP, 3-Hour",16.7%
same,VAS Score measured at Rest (median),"[1]; EEP, 6-Hour",4.0
same,"VAS Score measured at Rest, % Reduction vs Placebo","[1]; EEP, 6-Hour",20.0%
same,VAS Score measured at Rest (median),"[1]; EEP, 9-Hour",3.0
same,VAS Score measured at Rest (median),"[1]; EEP, 12-Hour",2.5
same,"VAS Score measured at Rest, % Reduction vs Placebo","[1]; EEP, 12-Hour",16.7%
same,VAS Score measured at Rest (median),"[1]; EEP, 15-Hour",2.0
same,"VAS Score measured at Rest, % Reduction vs Placebo","[1]; EEP, 15-Hour",33.3%
same,VAS Score measured at Rest (median),"[1]; EEP, 18-Hour",2.0
same,"VAS Score measured at Rest, % Reduction vs Placebo","[1]; EEP, 18-Hour",33.3%
same,VAS Score measured at Rest (median),"[1]; EEP, 21-Hour",1.0
same,"VAS Score measured at Rest, % Reduction vs Placebo","[1]; EEP, 21-Hour",66.7%
same,VAS Score measured at Rest (median),"[1]; EEP, 24-Hour",2.0
same,"VAS Score measured at Rest, % Reduction vs Placebo","[1]; EEP, 24-Hour",33.3%
same,VAS Score measured at Rest (median),"[1]; ITT, 1-Hour",8.0
same,"VAS Score measured at Rest, % Reduction vs Placebo","[1]; ITT, 1-Hour",0.0%
same,VAS Score measured at Rest (median),"[1]; ITT, 3-Hour",5.7
same,"VAS Score measured at Rest, % Reduction vs Placebo","[1]; ITT, 3-Hour",5.0%
same,VAS Score measured at Rest (median),"[1]; ITT, 6-Hour",4.0
same,"VAS Score measured at Rest, % Reduction vs Placebo","[1]; ITT, 6-Hour",11.1%
same,VAS Score measured at Rest (median),"[1]; ITT, 9-Hour",3.0
same,VAS Score measured at Rest (median),"[1]; ITT, 12-Hour",2.7
same,"VAS Score measured at Rest, % Reduction vs Placebo","[1]; ITT, 12-Hour",20.6%
same,VAS Score measured at Rest (median),"[1]; ITT, 15-Hour",2.0
same,"VAS Score measured at Rest, % Reduction vs Placebo","[1]; ITT, 15-Hour",31.0%
same,VAS Score measured at Rest (median),"[1]; ITT, 18-Hour",2.0
same,"VAS Score measured at Rest, % Reduction vs Placebo","[1]; ITT, 18-Hour",31.0%
same,VAS Score measured at Rest (median),"[1]; ITT, 21-Hour",2.0
same,"VAS Score measured at Rest, % Reduction vs Placebo","[1]; ITT, 21-Hour",33.3%
same,VAS Score measured at Rest (median),"[1]; ITT, 24-Hour",2.0
same,"VAS Score measured at Rest, % Reduction vs Placebo","[1]; ITT, 24-Hour",31.0%
same,"Morphine Requirement, LS Means Difference (95% CI)",[2]; AT,"−16.6 (−24.7, −8.4)"
same,"Morphine Requirement, LS Means Difference (95% CI)",[2]; EEP,"−18.1 (−27.2, −9.0)"
same,"Morphine Requirement, LS Means Difference (95% CI)",[2]; ITT,"−16.4 (−24.6, −8.1)"
same,decrease in the mean morphine used in the postoperative period,[2]; AT,30.9%
same,"Morphine Requirement, LS Means (SE)",[2]; AT,44.3 (5.7)
same,"Morphine Requirement, Mean (SD)",[2]; AT,41.1 (27.3)
same,"Morphine Requirement, Median",[2]; AT,38.0
same,"Morphine Requirement, LS Means (SE)",[2]; EEP,43.7 (5.9)
same,"Morphine Requirement, Mean (SD)",[2]; EEP,43.7 (26.9)
same,"Morphine Requirement, Median",[2]; EEP,40.5
same,decrease in the mean morphine used in the postoperative period,[2]; EPP,33.3%
same,decrease in the mean morphine used in the postoperative period,[2]; ITT,30.3%
same,"Morphine Requirement, LS Means (SE)",[2]; ITT,45.2 (5.8)
same,"Morphine Requirement, Mean (SD)",[2]; ITT,41.9 (26.9)
same,"Morphine Requirement, Median",[2]; ITT,38.0
